The values below come from ChEMBL document CHEMBL5143620, “Discovery of tricyclic HIV-1 integrase-LEDGF/p75 allosteric inhibitors by intramolecular direct arylation reaction” (Bioorg Med Chem Lett, 2022).

For one series, the system named is MT4. Kind of series: Cytotoxicity against human MT4 cells assessed as reduction in cell viability by MTT assay. The class given is functional.
Series [1] relates to Human immunodeficiency virus 1. Kind of series: Antiviral activity against wild type HIV-1 infected in human MT4 cells assessed as inhibition of viral infection by MTT assay. The class given is functional, organism-based.
Series [2] concerns Human immunodeficiency virus 1. Kind of series: Antiviral activity against […] HIV-1 harboring T174I mutant infected in human MT4 cells assessed as inhibition of viral infection by MTT assay. The class given is functional, organism-based.
Series [3] in a line: Metabolic stability in human liver microsomes. The class given is ADME, Microsome.
Series [4] can be described thus: Oral bioavailability in rat at 1 mg/kg. The class given is ADME, organism-based. The note with it: in vivo.
Series [5] in a line: AUC in rat at 0.5 mg/kg, iv. It counts as ADME, organism-based. The following applies: in vivo. More on the design: dose 0.5 mg/kg, route iv.
Series [6] in a line: Metabolic stability in rat liver microsomes. The class given is ADME, Microsome.
Series [7] can be described thus: Elimination half life in rat at 0.5 mg/kg, iv. The class given is ADME, organism-based. The following applies: in vivo, read-out: beta t1/2 (converted).
[8] abbreviates: Human immunodeficiency virus 1, MT4.

“And” between values parts separate entries of the source, which are not always exact repeats. Identical values can stand only once.

Turning to `Cc1ccc(-c2c(C)c3c(c(C)c2[C@H](OC(C)(C)C)C(=O)O)N(C)S(=O)(=O)c2ccccc2-3)cc1`, in the series on MT4 (Homo sapiens, MT4), the CC50 is 19 µM. Besides, the EC50 in series [1] (setting [8]) stood at 0.076 µM.

For the compound `Cc1ccc(-c2c(C)c3c(c(C)c2[C@H](OC(C)(C)C)C(=O)O)N(S(C)(=O)=O)Cc2ccc(C)cc2-3)cc1`, the EC50 worked out at 0.93 µM in series [2] (setting [8]) and 0.012 µM in series [1] (setting [8]). Further, the CC50 in the series with MT4 (Homo sapiens, MT4) came to 13 µM.

On to `Cc1c(-c2ccc3c(c2)CCCO3)c([C@H](OC(C)(C)C)C(=O)O)c(C)c2c1-c1c(F)cccc1CN2S(C)(=O)=O`, for which the EC50 in series [2] (setting [8]) is 0.17 µM; in series [1] (setting [8]) it was 0.0062 µM. For the same compound, the CC50 in the series on MT4 (Homo sapiens, MT4) came to 29 µM.

For `Cc1ccc(-c2c(C)c3c(c(C)c2[C@H](OC(C)(C)C)C(=O)O)N(S(C)(=O)=O)Cc2cccnc2-3)cc1`, the figures for the EC50 in series [2] (setting [8]) and in series [1] (setting [8]) were 3.2 µM and 0.023 µM, respectively. For the same compound, the CC50 in the series on MT4 (Homo sapiens, MT4) was determined as 70 µM.

For `Cc1ccc(-c2c(C)c3c(c(C)c2[C@H](OC(C)(C)C)C(=O)O)N(S(C)(=O)=O)Cc2ccc(F)cc2-3)cc1`, the values for the EC50 in series [2] (setting [8]) and in series [1] (setting [8]) were 1.2 µM and 0.011 µM, respectively. Besides, the CC50 in the series with MT4 (Homo sapiens, MT4) is 15 µM.

As to `Cc1ccc(-c2c(C)c3c(c(C)c2[C@H](OC(C)(C)C)C(=O)O)N(S(C)(=O)=O)Cc2cccc(Cl)c2-3)cc1`, the EC50 in series [2] (setting [8]) was 0.54 µM; in series [1] (setting [8]), 0.015 µM. In addition, the CC50 with MT4 (Homo sapiens, MT4) is 16 µM.

As to `Cc1ccc(-c2c(C)c3c(c(C)c2[C@H](OC(C)(C)C)C(=O)O)N(S(C)(=O)=O)Cc2ncccc2-3)cc1`, the results for the EC50 in series [2] (setting [8]) and in series [1] (setting [8]) were over 5 µM and 0.058 µM, respectively. In addition, the CC50 in the series on MT4 (Homo sapiens, MT4) was determined as 61 µM.

Regarding `Cc1ccc(-c2c([C@H](OC(C)(C)C)C(=O)O)c(C)c3[nH]c4ccccc4c3c2C)cc1`, the CC50 in the series with MT4 (Homo sapiens, MT4) was 13 µM. For the same compound, the EC50 in series [1] (setting [8]) amounted to 0.31 µM.

Consider `Cc1ccc(-c2c(C)c3c(c(C)c2[C@H](OC(C)(C)C)C(=O)O)N(S(C)(=O)=O)Cc2c(F)cccc2-3)cc1`, for which the EC50 was 0.51 µM in series [2] (setting [8]) and 0.01 µM in series [1] (setting [8]). The CC50 with MT4 (Homo sapiens, MT4) turned out to be 24 µM.

Turning to `Cc1ccc(-c2c(C)c3c(c(C)c2[C@H](OC(C)(C)C)C(=O)O)N(S(C)(=O)=O)Cc2cnccc2-3)cc1`, the EC50 in series [2] (setting [8]) is over 5 µM; in series [1] (setting [8]) it was 0.065 µM. For the same compound, the CC50 in the series with MT4 (Homo sapiens, MT4) came to 65 µM.

Consider `Cc1ccc(-c2c(C)c3c(c(C)c2[C@H](OC(C)(C)C)C(=O)O)N(S(C)(=O)=O)Cc2cc(C#N)ccc2-3)cc1`, for which the EC50 in series [2] (setting [8]) is 0.72 µM; in series [1] (setting [8]), 0.0073 µM. In addition, in the series with MT4 (Homo sapiens, MT4), the CC50 came to 35 µM.

On to `Cc1ccc(-c2c([C@H](OC(C)(C)C)C(=O)O)c(C)c3c(c2C)c2ccccc2c(=O)n3C)cc1`, for which the 50% cytotoxic concentration (CC50) in the series with MT4 (Homo sapiens, MT4) came out at 25 µM. The EC50 in series [1] (setting [8]) is 0.73 µM.

Take `Cc1ccc(-c2c(C)cc(N(Cc3ccccc3)S(C)(=O)=O)c(C)c2[C@H](OC(C)(C)C)C(=O)O)cc1`: in the series on MT4 (Homo sapiens, MT4), the CC50 was determined as 14 µM. Also, the EC50 in series [1] (setting [8]) worked out at 0.056 µM.

As for `Cc1ccc(-c2c(C)c3c(c(C)c2[C@H](OC(C)(C)C)C(=O)O)N(S(C)(=O)=O)Cc2cccc(F)c2-3)c(C)c1`, the EC50 in series [2] (setting [8]) is 1.1 µM; in series [2] (mt4), 1.5 µM; in series [1] (mt4), 0.0037 µM and 0.0095 µM. Besides, the CC50 in the series on MT4 is 11 µM; with MT4 (Homo sapiens, MT4), 18 µM.

In the case of `Cc1ccc(-c2c(C)c3c(c(C)c2[C@H](OC(C)(C)C)C(=O)O)N(S(C)(=O)=O)Cc2ccccc2-3)cc1`, the EC50 in series [2] (setting [8]) came to 0.81 µM; in series [1] (setting [8]), 0.011 µM. The CC50 in the series with MT4 (Homo sapiens, MT4) came to 21 µM.

For the compound `COc1ccc(-c2c(C)c3c(c(C)c2[C@H](OC(C)(C)C)C(=O)O)N(S(C)(=O)=O)Cc2cccc(F)c2-3)cc1`, the EC50 in series [2] (setting [8]) worked out at 0.32 µM; in series [1] (setting [8]) it was 0.0064 µM. Moreover, the CC50 with MT4 (Homo sapiens, MT4) turned out to be 31 µM.

Turning to `Cc1c(-c2ccc(Cl)cc2)c([C@H](OC(C)(C)C)C(=O)O)c(C)c2c1-c1c(F)cccc1CN2S(C)(=O)=O`, the EC50 stood at 0.34 µM in series [2] (setting [8]) and 0.0086 µM in series [1] (setting [8]). The CC50 in the series with MT4 (Homo sapiens, MT4) stood at 16 µM.

`Cc1c(-c2c(C)c3c(c(C)c2[C@H](OC(C)(C)C)C(=O)O)N(S(C)(=O)=O)Cc2cccc(F)c2-3)ccc2c1CCCO2`: the EC50 was 0.048 µM and 0.42 µM in series [2] (mt4); 0.0019 µM and 0.0067 µM in series [1] (mt4). The CC50 in the series with MT4 is 22 µM; in the series with MT4 (Homo sapiens, MT4), 17 µM.

`Cc1ccc(-c2c(C)c3c(c(C)c2[C@H](OC(C)(C)C)C(=O)O)N(S(C)(=O)=O)Cc2cccc(F)c2-3)cc1`: the EC50 in series [2] (setting [8]) was found to be 0.29 µM; in series [1] (setting [8]) it was 0.0055 µM. Also, in the series on MT4 (Homo sapiens, MT4), the CC50 amounted to 17 µM.

Consider `Cc1ccc(-c2c(C)c3c(c(C)c2[C@H](OC(C)(C)C)C(=O)O)N(S(C)(=O)=O)Cc2ccncc2-3)cc1`, for which the EC50 was over 5 µM in series [2] (setting [8]) and 0.02 µM in series [1] (setting [8]). In addition, the CC50 in the series with MT4 (Homo sapiens, MT4) worked out at 25 µM.

`Cc1ccc(-c2c(C)c3c(c(C)c2[C@H](OC(C)(C)C)C(=O)O)N(S(C)(=O)=O)Cc2cccc(F)c2-3)c(O)c1`: the values for the Stability in series [3] and in series [6] were 76.3% and 60.7%, respectively. The compound further displayed a bioavailability in series [4] of 17.8%. Also, in the series with MT4, the CC50 was 59 µM and 14 µM. Moreover, the AUC in series [5] worked out at 21.2 ng·h/mL. For the same compound, the half-life in series [7] is 3.5 h. For the same compound, the EC50 in series [1] (mt4) was 0.0046 µM and 0.021 µM.

Consider `Cc1ccc(-c2c(C)c3c(c(C)c2[C@H](OC(C)(C)C)C(=O)O)N(C)Cc2ccccc2-3)cc1`, for which the CC50 in the series on MT4 (Homo sapiens, MT4) was determined as 8.4 µM. Besides, in series [1] (setting [8]), the EC50 was 0.12 µM.

With `Cc1ccc(-c2c(C)c3c(c(C)c2[C@H](OC(C)(C)C)C(=O)O)N(S(C)(=O)=O)Cc2cc(C)ccc2-3)cc1`, the 50% effective concentration (EC50) amounted to 0.44 µM in series [2] (setting [8]) and 0.0049 µM in series [1] (setting [8]). The CC50 in the series with MT4 (Homo sapiens, MT4) was found to be 14 µM.

As for `CC(=O)N1Cc2ccccc2-c2c(C)c(-c3ccc(C)cc3)c([C@H](OC(C)(C)C)C(=O)O)c(C)c21`, in the series with MT4 (Homo sapiens, MT4), the CC50 was found to be 27 µM. The EC50 in series [1] (setting [8]) turned out to be 0.03 µM.

`Cc1ccc(-c2c(C)c3c(c(C)c2[C@H](OC(C)(C)C)C(=O)O)N(S(C)(=O)=O)Cc2cc(Cl)ccc2-3)cc1`: the concentration giving a half-maximal response (EC50) was 0.33 µM in series [2] (setting [8]) and 0.0039 µM in series [1] (setting [8]). Besides, the CC50 with MT4 (Homo sapiens, MT4) amounted to 13 µM.

Take `COc1ccc2c(c1)CN(S(C)(=O)=O)c1c(C)c([C@H](OC(C)(C)C)C(=O)O)c(-c3ccc(C)cc3)c(C)c1-2`: the EC50 is 0.27 µM in series [2] (setting [8]) and 0.0029 µM in series [1] (setting [8]). Further, the 50% cytotoxic concentration (CC50) with MT4 (Homo sapiens, MT4) stood at 17 µM.

For the compound `Cc1ccc(-c2c(C)c3c(c(C)c2[C@H](OC(C)(C)C)C(=O)O)N(S(C)(=O)=O)Cc2c(C)cccc2-3)cc1`, the EC50 in series [2] (setting [8]) turned out to be 0.67 µM; in series [1] (setting [8]) it was 0.008 µM. The CC50 in the series with MT4 (Homo sapiens, MT4) was determined as 17 µM.

For `Cc1c(-c2ccc(F)cc2)c([C@H](OC(C)(C)C)C(=O)O)c(C)c2c1-c1c(F)cccc1CN2S(C)(=O)=O`, the EC50 in series [2] (setting [8]) amounted to 0.86 µM; in series [1] (setting [8]) it was 0.012 µM. Also, the CC50 in the series on MT4 (Homo sapiens, MT4) was 32 µM.

For `Cc1c(-c2ccc3c(c2)NCCO3)c([C@H](OC(C)(C)C)C(=O)O)c(C)c2c1-c1c(F)cccc1CN2S(C)(=O)=O`, the EC50 in series [2] (setting [8]) stood at 0.15 µM; in series [1] (setting [8]), 0.01 µM. Also, the CC50 in the series with MT4 (Homo sapiens, MT4) was found to be 55 µM.

As for `Cc1ccc(-c2c(C)c3c(c(C)c2[C@H](OC(C)(C)C)C(=O)O)N(S(C)(=O)=O)Cc2cc(C(F)(F)F)ccc2-3)cc1`, the results for the EC50 in series [2] (setting [8]) and in series [1] (setting [8]) were 0.46 µM and 0.003 µM, respectively. For the same compound, the CC50 with MT4 (Homo sapiens, MT4) turned out to be 10 µM.

As to `Cc1ccc(-c2c(C)c3c(c(C)c2[C@H](OC(C)(C)C)C(=O)O)N(S(C)(=O)=O)Cc2cccc(C)c2-3)cc1`, the EC50 in series [2] (setting [8]) is 0.6 µM; in series [1] (setting [8]) it was 0.02 µM. The CC50 with MT4 (Homo sapiens, MT4) is 17 µM.

On to `Cc1c(-c2ccc3c(c2)NCCC3)c([C@H](OC(C)(C)C)C(=O)O)c(C)c2c1-c1c(F)cccc1CN2S(C)(=O)=O`, for which the figures for the EC50 in series [2] (setting [8]) and in series [1] (setting [8]) were 0.099 µM and 0.0043 µM, respectively. Moreover, in the series with MT4 (Homo sapiens, MT4), the CC50 worked out at 30 µM.

As to `Cc1ccc(-c2c(C)c3c(c(C)c2[C@H](OC(C)(C)C)C(=O)O)N(S(C)(=O)=O)Cc2cc(F)ccc2-3)cc1`, the EC50 in series [2] (setting [8]) was 0.36 µM; in series [1] (setting [8]) it was 0.0057 µM. Moreover, in the series on MT4 (Homo sapiens, MT4), the CC50 came to 19 µM.

As to `Cc1nc2ccccc2c(-c2ccc3c4c(ccnc24)CCO3)c1[C@H](OC(C)(C)C)C(=O)O` [BI-224436], the EC50 was over 5 µM in series [2] (setting [8]) and 0.02 µM in series [1] (setting [8]). Moreover, in the series with MT4 (Homo sapiens, MT4), the CC50 was over 50 µM.
